Data set [1] has as its target T1, UDP-glucuronosyltransferase 1A9 (Homo sapiens, UniProt O60656).
T1 sequence (O60656 whole entry): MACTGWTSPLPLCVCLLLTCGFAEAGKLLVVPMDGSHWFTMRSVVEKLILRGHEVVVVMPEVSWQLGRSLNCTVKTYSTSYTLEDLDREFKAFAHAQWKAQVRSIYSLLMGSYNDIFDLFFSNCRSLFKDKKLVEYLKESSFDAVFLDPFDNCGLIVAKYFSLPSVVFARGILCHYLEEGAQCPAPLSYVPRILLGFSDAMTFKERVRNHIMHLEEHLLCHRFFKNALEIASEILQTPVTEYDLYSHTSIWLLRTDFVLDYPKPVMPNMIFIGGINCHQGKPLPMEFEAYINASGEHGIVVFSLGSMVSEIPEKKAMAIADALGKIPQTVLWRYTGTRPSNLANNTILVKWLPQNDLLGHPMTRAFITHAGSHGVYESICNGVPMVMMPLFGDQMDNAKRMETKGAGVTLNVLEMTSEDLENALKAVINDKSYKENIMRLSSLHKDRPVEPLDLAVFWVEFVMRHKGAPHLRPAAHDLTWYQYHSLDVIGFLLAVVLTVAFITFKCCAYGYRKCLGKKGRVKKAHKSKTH
In words: Activity of human recombinant UGT1A9 expressed in baculovirus-infected insect cells assessed as unbound intrinsic clearance for enzyme-mediated glucuronidation per mg of protein after 5 mins by Michaelis-Menten plot analysis in presence of UDPGA and 0.5% fatty acid free BSA. The class given is ADME.

For data set [2], the target named is T1, UDP-glucuronosyltransferase 1A9. In words: Activity of human recombinant UGT1A9 expressed in baculovirus-infected insect cells assessed as unbound intrinsic clearance for enzyme-mediated glucuronidation per mg of protein after 5 mins by Michaelis-Menten plot analysis in presence of UDPGA and absence of fatty acid free BSA. Format: ADME.
Data set [3] in a line: Drug metabolism in human intestinal microsomes assessed as glucuronidation after 5 mins by Michaelis-Menten plot analysis in presence of UDPGA. Format: ADME, Intestine, Microsome.
Data set [4] in a line: Drug metabolism in human liver microsomes assessed as glucuronidation after 10 mins by Michaelis-Menten plot analysis in presence of UDPGA and 0.1% fatty acid free BSA. Format: ADME. To be noted: read-out: Km(unbound). (In general: Liver microsomes are a subcellular fraction often used to study metabolism.)
The subject of data set [5] is Liver microsome. In words: Intrinsic clearance in human liver microsomes assessed per mg of protein at 1 to 250 uM after 10 mins in presence of UDPGA. The class given is ADME.
Data set [6] deals with Liver microsome. In words: Unbound intrinsic clearance in human liver microsomes assessed per mg of protein after 10 mins in presence of UDPGA and 0.5% fatty acid free BSA. Format: ADME.
Data set [7] in a line: Fraction unbound incubation mixture containing human recombinant UGT1A9 at 1 to 250 uM after 10 mins by ultrafiltration method in presence of 0.5% fatty acid free BSA.
A short description of data set [8]: Fraction unbound incubation mixture containing human recombinant UGT1A9 at 1 to 250 uM after 10 mins by ultrafiltration method in presence of 2% fatty acid free BSA.
The target of data set [9] is T2, UDP-glucuronosyltransferase 2B15 (Homo sapiens, UniProt P54855).
T2 sequence (P54855 whole entry): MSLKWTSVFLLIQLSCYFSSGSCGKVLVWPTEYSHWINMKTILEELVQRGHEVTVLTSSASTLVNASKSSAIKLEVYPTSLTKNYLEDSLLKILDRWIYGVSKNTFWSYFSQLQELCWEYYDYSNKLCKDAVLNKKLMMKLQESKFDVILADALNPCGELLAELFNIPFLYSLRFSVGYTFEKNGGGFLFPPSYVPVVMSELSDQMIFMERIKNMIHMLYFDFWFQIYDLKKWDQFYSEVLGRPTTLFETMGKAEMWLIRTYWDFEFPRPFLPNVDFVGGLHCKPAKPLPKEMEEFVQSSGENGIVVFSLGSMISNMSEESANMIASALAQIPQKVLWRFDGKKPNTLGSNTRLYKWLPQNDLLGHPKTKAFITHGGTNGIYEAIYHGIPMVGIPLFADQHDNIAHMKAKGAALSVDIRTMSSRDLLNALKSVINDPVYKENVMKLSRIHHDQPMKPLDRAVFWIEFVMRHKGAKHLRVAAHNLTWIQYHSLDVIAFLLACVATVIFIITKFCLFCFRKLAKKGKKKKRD
In words: Activity of human recombinant UGT2B15 expressed in baculovirus-infected insect cells assessed as enzyme-mediated glucuronidation per mg of protein after 10 mins in presence of UDPGA. The class given is ADME.

Data set [10] can be described thus: Ratio of Km for drug metabolism in human liver microsomes to Km for human recombinant UGT1A9-mediated drug metabolism. Format: ADME. To be noted: recombinant enzyme.
In data set [11] the target is T3, UDP-glucuronosyltransferase 1A10 (Homo sapiens, UniProt Q9HAW8).
T3 sequence (Q9HAW8 whole entry): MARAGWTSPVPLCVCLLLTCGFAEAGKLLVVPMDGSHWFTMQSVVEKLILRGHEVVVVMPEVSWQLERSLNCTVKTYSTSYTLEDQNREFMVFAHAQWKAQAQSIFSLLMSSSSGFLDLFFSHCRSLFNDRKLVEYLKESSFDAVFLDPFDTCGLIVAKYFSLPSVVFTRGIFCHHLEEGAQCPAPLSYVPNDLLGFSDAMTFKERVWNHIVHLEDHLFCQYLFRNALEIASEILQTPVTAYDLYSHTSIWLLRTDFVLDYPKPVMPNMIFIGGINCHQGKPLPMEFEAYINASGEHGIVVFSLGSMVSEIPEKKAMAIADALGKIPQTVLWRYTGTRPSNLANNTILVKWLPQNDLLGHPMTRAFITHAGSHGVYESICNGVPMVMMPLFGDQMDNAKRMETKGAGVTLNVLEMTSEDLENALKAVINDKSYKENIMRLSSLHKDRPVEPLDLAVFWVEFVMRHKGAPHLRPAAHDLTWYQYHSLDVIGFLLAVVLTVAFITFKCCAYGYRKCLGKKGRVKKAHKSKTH
In words: Activity of recombinant human UGT1A10 expressed in baculovirus-infected insect cells assessed as enzyme-mediated glucuronidation per mg of protein after 10 mins in presence of UDPGA. Format: ADME.

The nature of data set [12]: Drug metabolism in human liver microsomes assessed as glucuronidation after 10 mins by Michaelis-Menten plot analysis in presence of UDPGA and absence of fatty acid free BSA. The class given is ADME. The note with it: read-out: Km(unbound).
The target in data set [13] is T1, UDP-glucuronosyltransferase 1A9. In words: Activity of human recombinant UGT1A9 expressed in baculovirus-infected insect cells assessed as unbound intrinsic clearance for enzyme-mediated glucuronidation per mg of protein after 5 mins by Michaelis-Menten plot analysis in presence of UDPGA and 2% fatty acid free BSA. Format: ADME.
The target is the same in data set [14]. In words: Activity of human recombinant UGT1A9 expressed in baculovirus-infected insect cells assessed as unbound intrinsic clearance for enzyme-mediated glucuronidation per mg of protein after 5 mins by Michaelis-Menten plot analysis in presence of UDPGA and 0.1% fatty acid free BSA. Format: ADME.

The Km is the concentration of substrate that gives half-maximal velocity. In the case of `COc1ccc(C(=O)Nc2cccc(O)c2NC(=O)c2ccc(N3CCCN(C)CC3)cc2)cc1.O=C(O)CCC(=O)O`, the CL free in data set [1] stood at 257 µL/min/mg; in [2], 138 µL/min/mg; in the data set with Liver microsome [6] it was 184 µL/min/mg; in [13], 316 µL/min/mg; in data set [14], 250 µL/min/mg. Moreover, the Km at 5 min in data set [3] was found to be 27.3 µM. For the same compound, the Km at 10 min turned out to be 17.7 µM in [4] and 216 µM in data set [12]. Besides, the CLint with Liver microsome [5] came out at 8.71 µL/min/mg. The Fu was found to be 0.553 in data set [7] and 0.237 in data set [8]. Besides, the Drug metabolism is less than 0.01 nmol/min/mg in data set [9] and 0.516 nmol/min/mg in [11]. Also, the Ratio in data set [10] amounted to 4.3.

For the origin of these results see ChEMBL document CHEMBL3526122, “Identification of UDP-glucuronosyltransferases responsible for the glucuronidation of darexaban, an oral factor Xa inhibitor, in human liver and intestine” (Drug Metab Dispos, 2012).
